According to ChEMBL document CHEMBL1124217, “2,4-Diamino-5-benzylpyrimidines and analogues as antibacterial agents. 9. Lipophilic trimethoprim analogues as antigonococcal agents” (J Med Chem, 1988):
In brackets after ≈: the same amount, converted by molar mass.

How the values were obtained:
Escherichia coli [1] = experiment: Inhibition of growth of Escherichia coli (CN314) measured as MIC compound/MIC Trimethoprim; format: functional
Klebsiella aerogenes [2] = experiment: Inhibition of growth of Enterobacter aerogenes (2200/186) measured as MIC(compound/MIC Trimethoprim; format: functional
Klebsiella pneumoniae [3] = experiment: Inhibition of growth of Klebsiella pneumoniae (CN3632) measured as MIC compound/MIC Trimethoprim; format: functional
Proteus vulgaris [4] = experiment: Inhibition of growth of Proteus vulgaris (CN329) measured as MIC compound/MIC Trimethoprim; format: functional
Shigella flexneri [5] = experiment: Inhibition of growth of Shigella flexneri (CN6007) measured as MIC compound/MIC Trimethoprim; format: functional
Staphylococcus aureus [6] = experiment: Inhibition of growth of Staphylococcus aureus (CN491) measured as MIC compound/MIC Trimethoprim; format: functional
Vibrio cholerae [7] = experiment: Inhibition of growth of Vibrio cholera (ATCC 14035) measured as MIC compound/MIC Trimethoprim; format: functional
Neisseria gonorrhoeae = experiment: Inhibition of growth of Neisseria gonorrhoeae; format: functional
Escherichia coli [8] = experiment: Inhibition of growth of Escherichia coli (CN314) was measured
Klebsiella pneumoniae [9] = experiment: Inhibition of growth of Klebsiella pneumoniae (CN3632) was measured
[10] = system: Mycolicibacterium smegmatis; experiment: Inhibition of growth of Mycobacterium smegmatis (S3254) was measured
Proteus vulgaris [11] = experiment: Inhibition of growth of Proteus vulgaris (CN329) was measured
Serratia marcescens = experiment: Inhibition of growth of Serratia marcescens (CN2398) was measured
Shigella flexneri [12] = experiment: Inhibition of growth of Shigella flexneri (CN6007) was measured
Staphylococcus aureus [13] = experiment: Inhibition of growth of Staphylococcus aureus (CN491) was measured
Klebsiella aerogenes [14] = experiment: microbe, parasite or virus in culture
Description: Inhibition of growth of Enterobacter aerogenes (2200/186) was measured

Vibrio cholerae [15] = experiment: microbe, parasite or virus in culture; details: ATCC 14035
Description: Inhibition of growth of Vibrio cholera (ATCC 14035) was measured

Dihydrofolate reductase = molecular target: T1, Dihydrofolate reductase (Rattus norvegicus, UniProt Q920D2); experiment: Inhibition of Rat liver Dihydrofolate reductase(DHFR); details: read-out: I50
T1 sequence (Q920D2 whole entry): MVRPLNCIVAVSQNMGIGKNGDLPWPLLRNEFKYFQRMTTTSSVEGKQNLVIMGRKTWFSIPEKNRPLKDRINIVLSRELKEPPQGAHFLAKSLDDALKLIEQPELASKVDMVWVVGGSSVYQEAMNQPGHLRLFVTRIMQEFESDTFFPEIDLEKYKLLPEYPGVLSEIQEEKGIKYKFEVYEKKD

Row | SMILES | MIC ratio (Escherichia coli [1]) | MIC ratio (Klebsiella aerogenes [2]) | MIC ratio (Klebsiella pneumoniae [3]) | MIC ratio (Proteus vulgaris [4]) | MIC ratio (Shigella flexneri [5]) | MIC ratio (Staphylococcus aureus [6]) | MIC (Neisseria gonorrhoeae) [µM] | other results
1 | COc1c(C)cc(Cc2cnc(N)nc2N)cc1C(C)(C)C | 100 | 300 | > 100 | > 30 | 300 | 10 |  | MIC (Vibrio cholerae [7]): 10 µg/mL (≈ 33.3 µM)
2 | CCc1cc(Cc2cnc(N)nc2N)cc(C)c1O | 3 | 3 | 3 |  | 3 | 1 |  | 
3 | CCc1cc(Cc2cnc(N)nc2N)cc(CC)c1OC | 3 | 10 | 10 | 30 | 3 | 0.3 |  | 
4 | Cc1cc(Cc2cnc(N)nc2N)cc(C)c1O | 10 | 1 | 3 | 3 |  | 10 |  | 
5 | CC(C)(C)c1cc(Cc2cnc(N)nc2N)cc(C(C)(C)C)c1O | > 1000 | > 1000 | > 1000 | > 1000 | > 1000 | 30 | 35 (≈ 11.5 µg/mL) | 
6 | COc1c(C(C)(C)C)cc(Cc2cnc(N)nc2N)cc1C(C)(C)C | 10000 | > 1000 | > 1000 | > 1000 |  | 30 | 13 (≈ 4.45 µg/mL) | 
7 | COc1c(C)cc(Cc2cnc(N)nc2N)cc1C | 1000 | 1000 | 300 | 300 |  | 100 | 200 (≈ 51.7 µg/mL) | 
8 | C=CCc1cc(Cc2cnc(N)nc2N)cc(OC)c1OC |  |  |  |  |  |  | 110 (≈ 33 µg/mL) | 
9 | CCc1cc(Cc2cnc(N)nc2N)cc(CC)c1O | 3 | 10 | 10 | 10 | 10 | 3 |  | MIC (Vibrio cholerae [7]): 1 µg/mL (≈ 3.67 µM)
10 | CCOc1cc(Cc2cnc(N)nc2N)cc(OC)c1OC |  |  |  |  |  |  | 180 (≈ 54.8 µg/mL) | 
11 | CCc1cc(Cc2cnc(N)nc2N)cc(C)c1OC | 30 | 30 | 30 | 3 | 30 | 3 | 140 (≈ 38.1 µg/mL) | 
12 | C/C=C/c1cc(Cc2cnc(N)nc2N)cc(OC)c1OC |  |  |  |  |  |  | 110 (≈ 33 µg/mL) | 
13 | COc1c(C(C)C)cc(Cc2cnc(N)nc2N)cc1C(C)C | 3000 | > 1000 | > 1000 | > 1000 |  | 30 |  | 
14 | COc1cc(Cc2cnc(N)nc2N)cc(OC)c1OC [TRIMETHOPRIM] |  |  |  |  |  |  | 240 (≈ 69.7 µg/mL) | MIC (Escherichia coli [8]): 1 µg/mL (≈ 3.44 µM); MIC (Klebsiella pneumoniae [9]): 1 µg/mL (≈ 3.44 µM); MIC [10]: 1 µg/mL (≈ 3.44 µM); MIC (Proteus vulgaris [11]): 1 µg/mL (≈ 3.44 µM); MIC (Serratia marcescens): 1 µg/mL (≈ 3.44 µM); MIC (Shigella flexneri [12]): 1 µg/mL (≈ 3.44 µM); MIC (Salmonella): 1 µg/mL (≈ 3.44 µM); MIC (Staphylococcus aureus [13]): 1 µg/mL (≈ 3.44 µM); MIC (Klebsiella aerogenes [14]): 1 µg/mL (≈ 3.44 µM); MIC (Vibrio cholerae [15]): 1 µg/mL (≈ 3.44 µM)
15 | CCCc1cc(Cc2cnc(N)nc2N)cc(CC)c1O | 10 | 10 | 3 | 3 | 3 | 0.3 | 9 (≈ 2.58 µg/mL) | MIC (Vibrio cholerae [7]): 1 µg/mL (≈ 3.49 µM)
16 | Cc1cc(Cc2cnc(N)nc2N)cc(C(C)(C)C)c1O | 100 | 100 | 100 | 100 | 30 | 3 |  | 
17 | C=CCc1cc(Cc2cnc(N)nc2N)cc(CCC)c1O |  |  |  |  |  |  |  | IC50 (Dihydrofolate reductase): 3.63 µM
18 | CCCc1cc(Cc2cnc(N)nc2N)cc(OC)c1OC |  |  |  |  |  |  | 54 (≈ 16.3 µg/mL) | 
19 | CCCc1cc(Cc2cnc(N)nc2N)cc(CC)c1OC | 30 | 100 | 30 | 30 | 30 | 0.3 | 17.5 (≈ 5.26 µg/mL) | IC50 (Dihydrofolate reductase): 30 µM; MIC (Vibrio cholerae [7]): 10 µg/mL (≈ 33.3 µM)
20 | CCCc1cc(Cc2cnc(N)nc2N)cc(CCC)c1O | 10 | 30 | 30 | 30 | 10 | 0.3 |  | MIC (Vibrio cholerae [7]): 1 µg/mL (≈ 3.33 µM)
21 | CCCc1cc(Cc2cnc(N)nc2N)cc(CCC)c1OC | 30 | 100 | 30 | 30 | 100 | 1 |  | MIC (Vibrio cholerae [7]): 10 µg/mL (≈ 31.8 µM)
